# Measured values: PubChem BioAssay AID1919017 (Molecular Pharmacology Branch, DTP, NCI, 2023)
# pIC50: −log10 of the molar value.
# Tested on: SW1271 complex spheroids with HUVEC/MSC, growth, % test/control
# Assay: Anticancer human tumor SW1271 cell line growth inhibition [AhR];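 also: spheroids exposed to agents for 7 days before readout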
# Details: for pIC50: curve of first compound; for viability, T/C: stronger effect = lower value
# Text: Multicellular complex tumor spheroid response to aryl hydrocarbon receptor antagonists in combination with a variety of drugs and investigational agents in selected tumor cell lines
# The current study was undertaken to assess response to aryl hydrocarbon receptor antagonists in combination with standard-of-care drugs and investigational agents in solid tumor complex spheroid models. Complex spheroids include a stromal component modeled by human endothelial cells (HUVEC) and fibroblasts modeled by human mesenchymal stem cells (MSCs). The concentration ranges selected for each drug and investigational agent were based upon clinically achievable concentrations if the clinical Cmax of the agent was known.
# Compounds. The drugs and investigational agents: BAY 2416964 (NSC825713), GNF351 (NSC835774), CH-223191 (NSC835775), CPI-455 (NSC825282), aza-TdCyd (NSC777586), decitabine (NSC127716), belinostat (NSC758774), entinostat (NSC756642), pevonedistat (NSC761192), tazemetostat (NSC777109), talazoparib (NSC765396), olaparib (NSC753686), selinexor (NSC780203), nedisertib (M3814, NSC802822), bortezomib (NSC756655), venetoclax (NSC766270), doxorubicin (NSC123127), elimusertib (BAY189344, NSC800525), ceralasertib (AZD6738, NSC777638), TAK-243 (NSC785004), alisertib (NSC759677), etoposide (NSC141540), topotecan (NSC609699), eribulin (NSC707389), gemcitabine (NSC613327), carboplatin (NSC241240), cisplatin (NSC119875), and SN-38 (NSC673596) were obtained from the National Cancer Institute (NCI) Developmental Therapeutics Program Chemical Repository (32). The FDA-approved anticancer drug set is available from the Developmental Therapeutics Program at https://dtp.cancer.gov/organization/dscb/obtaining/available plates.htm. […] The stock solutions were prepared in dimethyl sulfoxide (DMSO, Sigma-Aldrich, St. Louis, MO, cat. D2650), except for the platinum compounds which were prepared in saline (Quality Biological, Gaithersburg, MD, cat. 114-055-101), at 800-fold the tested concentration and stored at -70 degrees C prior to their use. All drugs and investigational agents were tested over a range starting from a high concentration at or near the clinical Cmax and decreasing in half-log increments. If the clinical Cmax for an agent had not been determined, the highest concentration tested was 10 microM (Table 1).
# Cell Culture. All cells were maintained in an incubator at 37 degrees C and 5% CO2 with 95% humidity. The PDC lines were cultured according to standard operating procedures established by the NCI PDMR (https://pdmr.cancer.gov). Briefly, all PDCs were thawed and cultured in Matrigel-coated flasks prepared with a working solution of 1X Ham's F-12 nutrient mix, without supplementation (Invitrogen, Waltham, MA, cat. 11765054), 100 U/mL penicillin-streptomycin (Invitrogen, cat. 15140122), and 2.5% Matrigel (Corning Inc., Corning, NY, cat. 354248) for the first three passages. All PDCs were cultured in complete DMEM/F-12 media containing advanced DMEM/F-12 (Invitrogen, cat. 12634028), 4.9% defined fetal bovine serum, heat inactivated (HyClone Laboratories Inc., Logan, UT, cat. SH30070.03HI), 389 ng/mL hydrocortisone (Sigma-Aldrich, cat. H4001), 9.7 ng/mL human EGF recombinant protein (Invitrogen, cat. PHG0313), 23.4 microg/mL adenine (Sigma-Aldrich, cat. A2786), 97.3 U/mL penicillin-streptomycin (Invitrogen, cat. 15140122), 1.9 mM L-glutamine (Invitrogen, cat. 25030081), and 9.7 microM Y-27632 dihydrochloride (Tocris Bioscience, Bristol, United Kingdom, cat. 1254). The PDCs were cultured in complete DMEM/F12 media without 10 microM Y-27632 dihydrochloride for at least two passages prior to the screen. The established cell lines NCI-H1341 and […] were cultured in DMEM/F-12, HEPES (Invitrogen, cat. 11330032), 5% defined fetal bovine serum (HyClone Laboratories Inc., cat. SH30070.03), ITS premix universal culture supplement [insulin (5 microg/mL), transferrin (5 microg/mL), and selenious acid (5 ng/mL)] […]
smiles,measurement,setting,value
CCc1c2c(nc3ccc(O)cc13)-c1cc3c(c(=O)n1C2)COC(=O)[C@]3(O)CC + CC(CO)NC(=O)c1cc(-c2ccc(Cl)cc2)nn(-c2cnn(C)c2)c1=O,pIC50,second compound 0.1 µM,7.52
same,pIC50,second compound 0.316 µM,< 6.52
same,pIC50,second compound 1 µM,6.86
same,pIC50,second compound 3.16 µM,< 6.52
same,pIC50,second compound 10 µM,< 6.52
same,"viability, T/C","second compound 0.1 µM, first compound 0.000949 µM",83%
same,"viability, T/C","second compound 0.1 µM, first compound 0.003 µM",83.5%
same,"viability, T/C","second compound 0.1 µM, first compound 0.00949 µM",66%
same,"viability, T/C","second compound 0.1 µM, first compound 0.03 µM",51%
same,"viability, T/C","second compound 0.1 µM, first compound 0.0949 µM",48.2%
same,"viability, T/C","second compound 0.1 µM, first compound 0.3 µM",47.3%
same,"viability, T/C","second compound 0.316 µM, first compound 0.000949 µM",72.8%
same,"viability, T/C","second compound 0.316 µM, first compound 0.003 µM",79%
same,"viability, T/C","second compound 0.316 µM, first compound 0.00949 µM",67.9%
same,"viability, T/C","second compound 0.316 µM, first compound 0.03 µM",63.2%
same,"viability, T/C","second compound 0.316 µM, first compound 0.0949 µM",56.3%
same,"viability, T/C","second compound 0.316 µM, first compound 0.3 µM",58.8%
same,"viability, T/C","second compound 1 µM, first compound 0.000949 µM",73.4%
same,"viability, T/C","second compound 1 µM, first compound 0.003 µM",85.9%
same,"viability, T/C","second compound 1 µM, first compound 0.00949 µM",56.6%
same,"viability, T/C","second compound 1 µM, first compound 0.03 µM",67%
same,"viability, T/C","second compound 1 µM, first compound 0.0949 µM",54%
same,"viability, T/C","second compound 1 µM, first compound 0.3 µM",42%
same,"viability, T/C","second compound 3.16 µM, first compound 0.000949 µM",74.1%
same,"viability, T/C","second compound 3.16 µM, first compound 0.003 µM",73.8%
same,"viability, T/C","second compound 3.16 µM, first compound 0.00949 µM",58%
same,"viability, T/C","second compound 3.16 µM, first compound 0.03 µM",55.1%
same,"viability, T/C","second compound 3.16 µM, first compound 0.0949 µM",49.1%
same,"viability, T/C","second compound 3.16 µM, first compound 0.3 µM",50.5%
same,"viability, T/C","second compound 10 µM, first compound 0.000949 µM",71.6%
same,"viability, T/C","second compound 10 µM, first compound 0.003 µM",65.8%
same,"viability, T/C","second compound 10 µM, first compound 0.00949 µM",55.5%
same,"viability, T/C","second compound 10 µM, first compound 0.03 µM",58.3%
same,"viability, T/C","second compound 10 µM, first compound 0.0949 µM",45.7%
same,"viability, T/C","second compound 10 µM, first compound 0.3 µM",54.7%
